ChEMBL document CHEMBL4304805, “Antibacterial activity of 2-amino-4-hydroxypyrimidine-5-carboxylates and binding to Burkholderia pseudomallei 2-C-methyl-d-erythritol-2,4-cyclodiphosphate synthase” (Bioorg Med Chem Lett, 2019)
Active and inactive are the calls of the source. The calls are words filed in the database; no cut-off is given here.

Assays:
[1] = target: T1, 2-C-methyl-D-erythritol 2,4-cyclodiphosphate synthase (Burkholderia pseudomallei (strain K96243)) (UniProt Q63T71); assay: Binding affinity to Burkholderia pseudomallei IspF by surface plasmon resonance analysis
T1 sequence (whole entry): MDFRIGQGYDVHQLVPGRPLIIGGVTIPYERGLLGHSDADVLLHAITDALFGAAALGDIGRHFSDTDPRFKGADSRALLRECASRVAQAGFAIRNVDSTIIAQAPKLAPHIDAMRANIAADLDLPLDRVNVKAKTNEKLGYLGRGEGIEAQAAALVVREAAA

Pseudomonas aeruginosa = assay: Antibacterial activity against Pseudomonas aeruginosa at 0.5 mM by Kirby Bauer disk diffusion method; format: functional; conditions: read-out: DIZ
Klebsiella pneumoniae = assay: Antibacterial activity against Klebsiella pneumoniae at 0.5 mM by Kirby Bauer disk diffusion method; format: functional; conditions: read-out: DIZ
[2] = target: T2, 2-C-methyl-D-erythritol 2,4-cyclodiphosphate synthase (Salmonella typhimurium (strain LT2 / SGSC1412 / ATCC 700720), UniProt Q8ZMF7); assay: Inhibition of Salmonella typhimurium IspF by malachite green dye based assay; parameters: species or system Salmonella enterica subsp. enterica serovar Typhimurium
T2 sequence (Q8ZMF7 whole entry): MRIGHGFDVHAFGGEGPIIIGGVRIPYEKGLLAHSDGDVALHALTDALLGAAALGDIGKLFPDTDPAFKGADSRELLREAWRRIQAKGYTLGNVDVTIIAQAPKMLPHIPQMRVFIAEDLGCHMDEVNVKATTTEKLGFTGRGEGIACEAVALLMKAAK

[3] = tested on: Burkholderia thailandensis; assay: Antibacterial activity against Burkholderia thailandensis at 0.5 mM by Kirby Bauer disk diffusion method; format: functional; conditions: read-out: DIZ
Escherichia coli = assay: Antibacterial activity against Escherichia coli at 0.5 mM by Kirby Bauer disk diffusion method; format: functional; conditions: read-out: DIZ
[4] = tested on: Mycolicibacterium smegmatis; assay: Antibacterial activity against Mycobacterium smegmatis at 0.5 mM by Kirby Bauer disk diffusion method; format: functional; conditions: read-out: DIZ
Micrococcus luteus = assay: Antibacterial activity against Micrococcus luteus at 0.5 mM by Kirby Bauer disk diffusion method; format: functional; conditions: read-out: DIZ
Bacillus cereus = assay: Antibacterial activity against Bacillus cereus at 0.5 mM by Kirby Bauer disk diffusion method; format: functional; conditions: read-out: DIZ
Corynebacterium xerosis = assay: Antibacterial activity against Corynebacterium xerosis at 0.5 mM by Kirby Bauer disk diffusion method; format: functional; conditions: read-out: DIZ
[5] = tested on: Corynebacterium pseudodiphtheriticum; assay: Antibacterial activity against Corynebacterium pseudodiphtheriticum at 0.5 mM by Kirby Bauer disk diffusion method; format: functional; conditions: read-out: DIZ

Row | SMILES | Activity [1] | zone of inhibition at 500 µM (Pseudomonas aeruginosa) [mm] | zone of inhibition at 500 µM (Klebsiella pneumoniae) [mm] | IC50 [2] [µM] | zone of inhibition at 500 µM [3] [mm] | zone of inhibition at 500 µM (Escherichia coli) [mm] | zone of inhibition at 500 µM [4] [mm] | zone of inhibition at 500 µM (Micrococcus luteus) [mm] | zone of inhibition at 500 µM (Bacillus cereus) [mm] | zone of inhibition at 500 µM (Corynebacterium xerosis) [mm] | zone of inhibition at 500 µM [5] [mm]
1 | O=C(O)c1cnc(Nc2ccc(-c3ccncc3)cc2)nc1O | Active | 0 | 0 | 23.5 | 0 | 0 | 0 | 0 | 10 | 0 | 0
2 | CCOC(=O)C1=C(C)N=c2s/c(=C\c3cc(Br)c(O)c(Br)c3)c(=O)n2C1c1cccs1 (stereo not drawn) | – | – | – | 37 | – | – | – | – | – | – | –
3 | CCOC(=O)c1cnc(Nc2ccc(N3CCCCC3)cc2)nc1O | – | 13 | 13 | – | 14 | 19 | 16 | 0 | 15 | 0 | 0
4 | CCOC(=O)c1cnc(NCc2ccc(Cl)c(Cl)c2)nc1O | – | 0 | 0 | – | 0 | 0 | 0 | 0 | 12 | 0 | 0
5 | O=C(O)c1cnc(Nc2ccccc2)nc1O | – | 0 | 0 | – | 0 | 0 | 15 | 0 | 0 | 0 | 0
6 | O=C(O)c1cnc(NCCc2ccccn2)nc1O | – | 17 | 7 | – | 10 | 0 | 17 | 15 | 7 | 0 | 0
7 | O=C(O)c1cnc(Nc2ccc(Br)cc2)nc1O | – | 0 | 12 | – | 13 | 15 | 17 | 0 | 12 | 16 | 16
8 | O=C(O)c1cnc(NCc2cc(Cl)ccc2Cl)nc1O | – | 9 | 8 | – | 10 | 11 | 15 | 0 | 10 | 0 | 10
9 | O=C(O)c1cnc(Nc2ccc(-c3ccccc3)cc2)nc1O | – | 0 | 15 | – | 0 | 0 | 15 | 0 | 12 | 0 | 0
10 | Nc1ccc(C(=O)O)c(O)c1 [AMINOSALICYLIC ACID] | – | 0 | 0 | – | 12 | 11 | 14 | 0 | 9 | 0 | 0
11 | O=C(O)c1cnc(NCc2ccc(Cl)cc2)nc1O | – | 15 | 9 | – | 11 | 14 | 15 | 0 | 14 | 0 | 0
